Experiments:
Format in all cases: in vivo, Sprague-Dawley rats
[1] = Plasma concentration of melagatran (LC-MS)
Source text: (§1) Sham operated animals received saline instead of endotoxin.

rats given endotoxin = assay: 125I-fibrinogen in the blood after endotoxin (experimental endotoxaemia); settings: high dose heparin (group VIII); melagatran groups IV-VI; melagatran with dexamethasone groups XVII-XX
Experimental: (§2) The body temperature was maintained at. 38° C. throughout the experiment by external heating.
as §1
Adjustment for multiplicity was done using Scheffe. […] Corrections for multiple comparisons were made according to Bonferroni.

[2] = tested on: thrombin/antithrombin III complex (TAT); assay: Thrombin/antithrombin III complex (TAT) in plasma after endotoxin
Experimental: as §2
[…]. […] Sham operated animals received saline instead of endotoxin.

N=C(N)c1ccc(CNC(=O)[C@@H]2CCN2C(=O)[C@H](NCC(=O)O)C2CCCCC2)cc1 [melagatran, HOOC—CH2—(R)Cgl-Aze-Pab-H]
mean plasma concentration of melagatran during the 5 h experiment ([1]; group IV, Mela low 0.13 μmol/kg bolus + 0.32 μmol/kg/h iv): 0.78 ± 0.08 µmol/L
plasma concentration of melagatran combined with heparin ([1]; group IX, Hep low + Mela low): 720 ± 90 nM
mean plasma concentration of melagatran during the 5 h experiment ([1]; group V, Mela med 0.4 μmol/kg bolus + 1.0 μmol/kg/h iv): 2.83+0.45 μmol/l
mean plasma concentration of melagatran during the 5 h experiment ([1]; group VI, Mela high 1.3 μmol/kg bolus + 3.2 μmol/kg/h iv): 6.88 ± 0.42 µmol/L
plasma concentration of melagatran combined with heparin ([1]; group X, Hep low + Mela med): 1970 ± 160 nM
plasma concentration of melagatran in combination with dexamethasone ([1]; high dose group, first value (group XVIII, Dexa low 1 mg/kg + melagatran 0.4 μmol/kg + 1.0 μmol/kg/h)): 1490 ± 130 nM
plasma concentration of melagatran in combination with dexamethasone ([1]; high dose group, second value (group XX, Dexa high 10 mg/kg + melagatran 0.4 μmol/kg + 1.0 μmol/kg/h)): 1280 ± 100 nM
plasma concentration of melagatran in combination with dexamethasone ([1]; low dose group, first value (group XVII, Dexa low 1 mg/kg + melagatran 0.13 μmol/kg + 0.32 μmol/kg/h)): 480 ± 10 nM
plasma concentration of melagatran in combination with dexamethasone ([1]; low dose group, second value (group XIX, Dexa high 10 mg/kg + melagatran 0.13 μmol/kg + 0.32 μmol/kg/h)): 460 ± 20 nM
fibrinogen consumption (rats given endotoxin): completely prevented

C[C@@H]1C[C@H]2[C@@H]3CCC4=CC(=O)C=C[C@]4(C)[C@@]3(F)[C@@H](O)C[C@]2(C)[C@@]1(O)C(=O)CO [dexamethasone, Dexamethasone]
TAT (thrombin generation) ([2]; dexamethasone groups (discussion)): below 8 μg/l

NC[C@H]1CC[C@H](C(=O)O)CC1 [tranexamic acid]
TAT ([2]; measured in some animals, group III, groups XV-XX): 55.5 ± 6.6 µg/L

Source: patent publication US7449446B2, “Combination product comprising melagatran and dexamethasone” (AstraZeneca AB, priority 2001, dated 2008)
